Patent US12552823B2, “Glucosamine derivatives and pharmaceutical uses thereof” (RISEN (SUZHOU) PHARMA TECH CO., LTD., priority 2017, dated 2026)

Tests used:
[1] = test system: Medial Meniscus Transection (MMT) Model in Rats; test: Medial meniscus transection (MMT) model in rats: weight bearing and histopathology; assay type: in vivo, rat
Source text: In the rat MMT model, the unilateral knee (right knee) was cleaned and prepped for surgery. An incision was made over the medial aspect of the femoro-tibial joint. The medial collateral ligament was exposed via blunt dissection and transected to reflect the meniscus toward the femur. A full thickness cut was made through the meniscus at its narrowest point. The joint space was returned to normal, and the skin was closed and the animal allowed to recover. For the present study, at second day post MMT induction animals, G1 and G2 animals were treatment with vehicle and test compound 16 respectively. Animals were dosed 4 times every day, and were dosed by gavage for 4 weeks.

[2] = Pharmacokinetic studies in Sprague-Dawley (SD) rats: plasma GlcNBu after oral gavage of test compound; assay type: in vivo; parameters: key to AUC0-t / AUC0-∞ / t1/2z / Tmax / Vz/F / CLz/F / Cmax: (—): not detected; settings: 0.93 mmol/kg; for AUC0-t / AUC0-∞ / CLz/F / Cmax / Tmax / Vz/F / t1/2z: Table 5, plasma GlcNBu after oral gavage of indicated compound
Procedure: A test compound is dissolved in water at a concentration determined by the desired dose and dosing volume for the specific animal to which the compound is to be administered. A calculated volume of dosing solution is administered to the animal (PO, SQ, IP, or IV). A blood sample is collected following administration of the test compound at specific time points (such as 0 minutes (min), 5 min, 10 min, 15 min, 30 min, 1 hour (h), 1.5 h, 2 h, 3 h, 4, 6 h, etc.). The blood sample is converted to a plasma sample using standard techniques. The plasma samples are analyzed to determine the concentration of the test compound and, in some cases, GlcNBu.
According to the above general procedure, SD rats were grouped randomly into groups of six (n=6). The test compound, GlcNBu or a compound provided herein, was administered to the animals by oral gavage at a dose of 0.93 mmol/kg. For illustration purposes, GlcNBu was given at an oral dose of 232 mg/kg (0.93 mmol/kg), and compound 16 was administered at an equal molar dose (0.93 mmol/kg, i.e., 362 mg/kg). At pre-set time points, blood was taken through orbital venous plexus extraction, and the samples were analyzed using LC/MS-MS to determine the GlcNBu concentration in the plasma.
In the figure, Curves labeled with -●- and -▴-represent plasma GlcNBu concentration following oral administration of GlcNBu (232 mg/kg, or 0.93 mmol/kg) and compound 16 ([…], or 0.93 mmol/kg), respectively. […] FIG. 2A and FIG. 2B show examples of other compounds of the invention, presented in plasma GlcNBu concentration versus time curves; a summary of pharmacokinetic parameters for these compounds is given in Table 4 and Table 5.

[3] = test system: Monosodium Iodoacetate-Induced Osteoarthritis (MIA) Model in Rat Knee; test: Monosodium iodoacetate-induced osteoarthritis (MIA) model in rat knee: weight bearing and histology; assay type: in vivo
Procedure: Osteoarthritis was induced by intra-articular (i.a.) injection of MIA solution in the rat knee joint as follows: Briefly, rats were anesthetized with isoflurane and given a single i.a. administration of 2 mg of MIA dissolved in saline through the intrapatellar ligament of the right knee. MIA was administered in a volume of 50 μL. Basal readings were established using a group of control rats injected with 10% ethanol in water. Rats were randomized by initial body weight to groups of 6 or 7. After MIA injection, the MIA groups began treatment with either vehicle, or a test compound at a preset dose regime for a period of 28 days. Clinical observations were recorded, including body weight, joint swelling, and weight bearing, on pre-induction day (day 0), day 3, 5, 7, 14, 21 and/or 28. At the end of the study, the animals were euthanized by CO2 and sacrificed.
Joint samples including the tibia and femur were sectioned in the coronal plane and stained using both H&E and Safranin-O. Knee joints were examined and scored for cartilage degeneration, the presence of osteophytes, the amount and extent of calcified cartilage and subchondral bone damage, and the amount of synovial membrane inflammation using the Osteoarthritis Research Society International (OARSI) scoring system put forth in 2010 (Kraus, V. B. et al., Osteoarthritis Cartilage, 2010, Suppl 3:535-52).
Studies of compound 16 in the MIA model were conducted as described above.

OVX rat = settings: feeding in the OVX rat; cited from earlier work
[4] = test system: destructive arthritis rat model; settings: cited from earlier work
[5] = humans, polyvalent or monovalent form, compared with glucosamine; cited from earlier work

Compound | AUC0-t [2] | AUC0-∞ [2] | CLz/F [2] | Cmax [2] | Tmax [2] | Vz/F [2] | t1/2z [2] | also measured
CCCC(=O)N[C@H]1C(O)O[C@H](COC(=O)CCC)[C@@H](OC(=O)CCC)[C@@H]1O (stereo partly drawn) [Compound 16, 2-N-butyryl-4,6-O-tributyryl-D-glucosamine] | – | – | – | – | – | – | – | degeneration changes of chondrocyte clustering ([1]; G2 as compared with G1): significantly lower; weight bearing on the right paw ([1]; G2 as compared with G1 on Day 3 and Days 14-28): significantly increased; histology parameters ([1]; G2 vs G1, all parameters): values in all parameters lower; plasma drug exposure ([2]; versus GlcNBu at mole-equivalent oral dose): improved plasma drug exposure significantly; articular cartilage degeneration ([3]; MIA-induced OA rat model): slowed the articular cartilage degeneration; weight bearing on the back-right leg ([3]; day 5, all compound-treated groups (234 and 468 mg/kg) vs vehicle): significant increases; weight bearing ([3]; day 14, high dose (G3, 468 mg/kg) vs vehicle): significant increases; osteophytes (histology) ([3]; high dose group (468 mg/kg) compared with vehicle group): significantly decreased; other histological parameters (mean values) ([3]; high dose treated group (468 mg/kg) vs vehicle): clear trend of lowering all other mean values
CCCC(=O)N[C@H]1C(OCc2ccccc2)O[C@H](CO)[C@@H](O)[C@@H]1O (stereo partly drawn) [Compound 75, 1-O-benzyl-2-N-butyryl-D-glucosamine] | (—) | (—) | (—) | (—) | (—) | (—) | (—) | –
CCCC(=O)N[C@H]1C(OCc2ccccc2)O[C@H](CO)[C@@H](O)[C@@H]1OCc1ccccc1 (stereo partly drawn) [Compound 76, 2-N-butyryl-1,3-di-O-benzyl-D-glucosamine] | (—) | (—) | (—) | (—) | (—) | (—) | (—) | –
CCCC(=O)N[C@H]1C(O)O[C@H](COC(=O)CCC(=O)O)[C@@H](OC(=O)CCC(=O)O)[C@@H]1O (stereo partly drawn) [Compound 79, 2-N-butyryl-4,6-di-O-(4-hydroxy-4-oxo-butyryl)-D-glucosamine] | (—) | (—) | (—) | (—) | (—) | (—) | (—) | –
CCCC(=O)N[C@H]1C(O)O[C@H](COC(=O)NCCCC(=O)O)[C@@H](O)[C@@H]1O (stereo partly drawn) [Compound 94, 2-N-butyryl-6-O-((3-carboxy-1-propyl)aminocarbonyl)-D-glucosamine] | (—) | (—) | (—) | (—) | (—) | (—) | (—) | –
CCCC(=O)N[C@H]1C(O)O[C@H](CO)[C@@H](O)[C@@H]1O (stereo partly shown) [GlcNBu, N-butyryl glucosamine] | – | – | – | – | – | – | – | bone mineral and biomechanical properties (OVX rat): preserves bone mineral and some biomechanical properties; subchondral bone structure [4]: preserved strikingly the subchondral bone structure
CC(=O)N[C@H]1C(O)O[C@H](CO)[C@@H](O)[C@@H]1O (stereo partly shown) [N-acetylglucosamine] | – | – | – | – | – | – | – | half-life [5]: longer half-life than glucosamine
